Assay [1] concerns the target 3-hydroxybutyryl-CoA dehydrogenase of Faecalibacterium prausnitzii A2-165 (Faecalibacterium prausnitzii A2-165). Briefly: SEC-MALS; 2.018 mg/mL A2HBD on Superdex 200 Increase, 20 mM Tris-HCl pH 8.0, 150 mM NaCl, 0.3 mL/min; main peak 92% of the scattered mass.
The target of assay [2] is T1, 3-hydroxybutyryl-CoA dehydrogenase of A2-165 (A2HBD; A2-165 BHBD) (Faecalibacterium duncaniae, UniProt C7H5K9).
T1 construct: gene FAEPRAA2165_01580; full-length (Met1-Leu290 printed, 867 bp gene), C-terminal 6xHis kept, pET21a, E. coli BL21(DE3); hexamer in solution; N-terminus MKIGVI and C-terminus TPVDQ-LE(H6) from the printed primers; Leu290 probably comes from the XhoI site
Put plainly: microscale thermophoresis. It is filed as binding. (In general: Microscale thermophoresis detects binding through changes in fluorescence in a small temperature gradient.)

T1 sequence (C7H5K9 entry or part of it): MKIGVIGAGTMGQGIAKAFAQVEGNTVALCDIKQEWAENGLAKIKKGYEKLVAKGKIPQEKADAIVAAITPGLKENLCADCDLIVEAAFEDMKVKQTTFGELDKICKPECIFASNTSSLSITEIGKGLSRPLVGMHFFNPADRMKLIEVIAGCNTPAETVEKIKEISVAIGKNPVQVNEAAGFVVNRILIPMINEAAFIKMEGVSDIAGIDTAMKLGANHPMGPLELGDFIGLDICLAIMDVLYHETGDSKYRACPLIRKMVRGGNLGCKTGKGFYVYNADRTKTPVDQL

For “3-hydroxybutyryl-CoA dehydrogenase of Faecalibacterium prausnitzii A2-165 (enzyme)”, the stoichiometry N (in general, a count of units in the complex or per binding partner) in assay [1] is 6. With `NC(=O)c1ccc[n+]([C@@H]2O[C@H](COP(=O)(O)OP(=O)(O)OC[C@H]3O[C@@H](n4cnc5c(N)ncnc54)[C@H](O)[C@@H]3O)[C@@H](O)[C@H]2O)c1` [NAD^+], in assay [2], the dissociation constant Kd (commonly the free concentration of one partner at which half of the binding sites on the other are occupied at equilibrium, for simple one-to-one binding) is 347 µM. `CC(=O)CC(=O)SCCNC(=O)CCNC(=O)[C@H](O)C(C)(C)COP(=O)(O)OP(=O)(O)OC[C@H]1O[C@@H](n2cnc3c(N)ncnc32)[C@H](O)[C@@H]1OP(=O)(O)O` [acetoacetyl-CoA]: binding in assay [2] was characterised by a dissociation constant (Kd) of 23.9 µM.

The values above are taken from publication PMC11476959, “Structural Insights and Catalytic Mechanism of 3-Hydroxybutyryl-CoA Dehydrogenase from Faecalibacterium Prausnitzii A2-165” (International Journal of Molecular Sciences, 2024).
